Assay results: article PMC10046961, “High-Throughput Screening Assay for Detecting Drug-Induced Changes in Synchronized Neuronal Oscillations and Potential Seizure Risk Based on Ca^2+ Fluorescence Measurements in Human Induced Pluripotent Stem Cell (hiPSC)-Derived Neuronal 2D and 3D Cultures” (Cells, 2023)
Read-outs that look alike come from different tables or passages of the source. Marks after values point to notes of the source that are not given here.

Tests used:
[1] = tested on: hiPSC-derived neurons co-cultured with human primary astrocytes in 2D; test: Ca2+ transient oscillation assay (FDSS), 2D co-culture; format: cell-based; settings: for activation at 0.11 µM / activation at 0.33 µM / activation at 1 µM / activation at 3 µM / activation at 1.11 µM / activation at 3.33 µM / activation at 10 µM / activation at 30 µM: Homo sapiens, 1 h, 60 min; for effect on peak number / Ca2+ neuronal oscillations, in words: 2D format
From the text: (§1) In this study, we used cryopreserved excitatory neurons that were differentiated from human induced pluripotent stem cells (hiPSCs; Cat #: EX-SeV-CW50065) (Elixirgen Scientific, Inc., Baltimore, MD, USA). The hiPSCs used, namely, CW50065 were derived from a healthy person and distributed by the California Institute of Regenerative Medicine Human Induced Pluripotent Stem Cell Repository. Human iPSC-derived excitatory neurons were differentiated from CW50065 using a proprietary cocktail of differentiation-inducing factors called Quick-Neuron™ EX-SeV (Batch number: EX-SeV-CW50065-L; Elixirgen Scientific, Inc.), cryopreserved 3 days after differentiation induction and distributed. Human iPSC-derived excitatory neurons were recovered from cryopreservation and maintained essentially as instructed by the manufacturer.
(§2) Cryopreserved human primary astrocytes (#N7805100, Thermo Fisher Scientific, Waltham, MA, USA) were recovered as instructed by the manufacturer and seeded in a 10 cm dish at the density of 2,000,000 cells. The culture was maintained using the Human Astrocytes Kit (#N7805200, Thermo Fisher Scientific) for 12 days. Half of the culture medium was replaced with fresh medium every 2–3 days during the culture period. These astrocytes were harvested using StemPro™ Accutase™ Cell Dissociation Reagent (#A1110501, Thermo Fisher Scientific) when they reached confluency. These cells were cryopreserved in STEM-CELLBANKER® GMP grade (ZENOGEN PHARMA, Kohriyama, Fukushima Japan) at the density of 2,000,000 cells per vial as working stocks for co-culture with neurons in 2D and 3D conditions described below. After a working stock was recovered, astrocytes were directly mixed with hiPSC-derived neurons for plating without further expansion.
Live neurons (hiPSC neurons) and human primary astrocytes were recovered from cryopreservation as described above and seeded in each well of 384-well plates at the density of 10,000 cells (HiPSC-cortical neurons) and human primary astrocytes at 2500 cells (ratio 4:1). These co-cultures were maintained under the medium conditions recommended by the manufacturer, namely Medium N(G2P), to complete the differentiation of excitatory neurons for the first week. […] Half of the culture medium was replaced with fresh medium every 3–4 days during the culture period.
After the incubation, the culture medium containing Cal-520 was replaced with 50 μL of HBSS supplemented with 0.1 mM MgCl2, 2 mM CaCl2, 10 mM HEPES, and 10 mM glucose and incubated at 37 ℃ for 15 min.
(§3) Prior to the fluorescence measurements, all wells to be measured were treated with 0.04% dimethyl sulfoxide (DMSO) to stabilize the oscillation signal. The first recording started 10 min after the addition of DMSO for each plate for 20 min. The effects of the test compound were recorded again starting 60 min after the administration of compounds, for 20 min.
Twenty-five compounds (Table 1) were first dissolved in either DMSO (most compounds) or distilled water depending on the compound, and further diluted with PBS to produce stock solutions concentrated 10-fold. […] The final concentration of DMSO was adjusted to 0.1%. Changes in the fluorescence intensity (FI) produced by Ca^2+ flux were measured at 37 °C for all wells of a 384-well plate simultaneously using the FDSS/µCell system (#C13299, Hamamatsu Photonics, Hamamatsu, Shizuoka, Japan). The excitation and the emission wavelengths were 470 nm and 540 nm, respectively. The recording duration was 20 min with a sampling frequency of 2 Hz for cells cultured under 2D conditions and 10 Hz for cells cultured under 3D conditions.

[2] = tested on: hiPSC-derived neurons co-cultured with human primary astrocytes in 3D; test: Ca2+ transient oscillation assay (FDSS), 3D spheroids; format: cell-based; settings: 60 min
From the text: as §1, §2
We used U-shaped-bottom 96-well plates (#174925, Thermo Fisher Scientific) without any prior coating to make a spheroid in each well. Neurons and astrocytes were seeded and maintained as described for 2D cultures, except for the following modifications. First, neurons and astrocytes were seeded in each well of the 96-well plates at the density of 8000 hiPSC neurons with 8000 human primary astrocytes (8000)/well (ratio 1:1). Second, when the differentiation of excitatory neurons was completed one week after seeding, cells were fed with BrainPhys^TM Neuronal Medium (#05793, […] Technologies, Vancouver, BC, Canada) supplemented with 2% SM1 Neuronal Supplement, 1% N2 Supplement-A, and 10% Neuron culture medium for 5 weeks.
Cells maintained as spheroids (3D) in the U-shaped-bottom 96-well plates were transferred into 384-well spheroid plates (#4516, Merck, Corning, NY, USA) with 25 µL of the culture medium. A Ca^2+-indicating dye solution including […] was prepared using the EarlyTox™ Cardiotoxicity Kit (#R8211, Molecular Devices, LLC, San Jose, CA, USA) according to the manufacturer. Then, the same volume of the dye solution was dispensed into each well.
as §3
Twenty-five compounds (Table 1) were first dissolved in either DMSO (most compounds) or distilled water depending on the compound, and further diluted with PBS to produce stock solutions concentrated 10-fold. Then, 5 μL of each compound solution was injected into each well using an automatic pipetting robot (#4505, ASSIST PLUS pipetting robot, Integra Biosciences Corp., Hudson, NH, USA), so that the final concentration of each compound was 1-fold nominal in the well.

[3] = read-out: Area under the curve - 2D Mean
[4] = read-out: Peak amplitude - 2D Mean
[5] = read-out: Peak-to-peak interval - 2D Mean

## C[C@]12N[C@H](Cc3ccccc31)c1ccccc12 [MK-801, Dizocilpine]
[1]; [3]
  activation at 0.11 µM: -35.7%
  activation at 0.33 µM: -57%
  activation at 1 µM: -57.4%
  activation at 3 µM: -79.8%
[1]; read-out: Peak Number—2D Mean
  activation at 0.11 µM: -82.8%
  activation at 0.33 µM: -90.4%
  activation at 1 µM: -84.6%
  activation at 3 µM: -96.3%
[1]; [4]
  activation at 0.11 µM: -41.8%
  activation at 0.33 µM: -63.6%
  activation at 1 µM: -58.6%
  activation at 3 µM: -79.7%
[1]; read-out: Peak width - 2D Mean
  activation at 0.11 µM: -3.2%
  activation at 0.33 µM: -23.6%
  activation at 1 µM: -32.8%
  activation at 3 µM: -70%
[1]; [5]
  activation at 0.11 µM: 204%
  activation at 0.33 µM: 3.6%
  activation at 1 µM: -57.4%
  activation at 3 µM: -100%
[2]; 0.11 µM
  Area under the curve - 3D Mean: 127.3 % change from baseline
  Peak Number—3D Mean: −49.1 * % change from baseline
  Peak amplitude - 3D Mean: 104.7 % change from baseline
  Peak width - 3D Mean: 8.0 % change from baseline
  Peak-to-peak interval - 3D Mean: 76.1 % change from baseline
[2]; 0.33 µM
  Area under the curve - 3D Mean: 66.6 % change from baseline
  Peak Number—3D Mean: −67.3 ** % change from baseline
  Peak amplitude - 3D Mean: 76.2 % change from baseline
  Peak width - 3D Mean: −29.3 % change from baseline
  Peak-to-peak interval - 3D Mean: 66.4 % change from baseline
[2]; 1 µM
  Area under the curve - 3D Mean: -66.9 % change from baseline
  Peak Number—3D Mean: −97.2 ** % change from baseline
  Peak amplitude - 3D Mean: −64.1 % change from baseline
  Peak width - 3D Mean: −85.8 % change from baseline
  Peak-to-peak interval - 3D Mean: −100.0 % change from baseline
[2]; 3 µM
  Area under the curve - 3D Mean: 41.0 % change from baseline
  Peak Number—3D Mean: −84.8 ** % change from baseline
  Peak amplitude - 3D Mean: 67.2 % change from baseline
  Peak width - 3D Mean: −36.8 % change from baseline
  Peak-to-peak interval - 3D Mean: −100.0 % change from baseline

## OC(c1cc(C(F)(F)F)nc2c(C(F)(F)F)cccc12)C1CCCCN1 (centres unmarked) [Mefloquine]
[1]
  effect on peak number / Ca2+ neuronal oscillations, in words: significantly reduced peak number
[1]; [3]
  activation at 1.11 µM: 14.8%
  activation at 3.33 µM: -47.2%
  activation at 10 µM: -100%
  activation at 30 µM: -100%
[1]; read-out: Peak Number—2D Mean
  activation at 1.11 µM: -30.8%
  activation at 3.33 µM: 16.2%
  activation at 10 µM: -100%
  activation at 30 µM: -100%
[1]; [4]
  activation at 1.11 µM: 0.5%
  activation at 3.33 µM: -21.2%
  activation at 10 µM: -100%
  activation at 30 µM: -100%
[1]; read-out: Peak width - 2D Mean
  activation at 1.11 µM: 15.8%
  activation at 3.33 µM: -47%
  activation at 10 µM: -100%
  activation at 30 µM: -100%
[1]; [5]
  activation at 1.11 µM: 25%
  activation at 3.33 µM: 48.2%
  activation at 10 µM: -100%
  activation at 30 µM: -100%
[2]; 1.11 µM
  Area under the curve - 3D Mean: 159.0 % change from baseline
  Peak Number—3D Mean: 2.8 % change from baseline
  Peak amplitude - 3D Mean: 149.7 % change from baseline
  Peak width - 3D Mean: 2.6 % change from baseline
  Peak-to-peak interval - 3D Mean: 7.1 % change from baseline
[2]; 3.33 µM
  Area under the curve - 3D Mean: 143.4 % change from baseline
  Peak Number—3D Mean: −11.1 % change from baseline
  Peak amplitude - 3D Mean: 139.0 % change from baseline
  Peak width - 3D Mean: 1.4 % change from baseline
  Peak-to-peak interval - 3D Mean: 1.7 % change from baseline
[2]; 10 µM
  Area under the curve - 3D Mean: 135.6 % change from baseline
  Peak Number—3D Mean: 7.2 % change from baseline
  Peak amplitude - 3D Mean: 135.0 % change from baseline
  Peak width - 3D Mean: −1.5 % change from baseline
  Peak-to-peak interval - 3D Mean: 12.8 % change from baseline
[2]; 30 µM
  Area under the curve - 3D Mean: 74.4 % change from baseline
  Peak Number—3D Mean: −3.7 % change from baseline
  Peak amplitude - 3D Mean: 99.9 % change from baseline
  Peak width - 3D Mean: −10.9 % change from baseline
  Peak-to-peak interval - 3D Mean: 8.3 % change from baseline

## NC[C@H](O)c1ccc(O)c(O)c1 [norepinephrine]
[1]
  effect on peak number / Ca2+ neuronal oscillations, in words: significantly reduced peak number

## NCC(=O)O [glycine]
[1]
  effect on peak number / Ca2+ neuronal oscillations, in words: significantly reduced peak number
